pIC50: −log10 of the molar value. “And” between values parts separate entries of the source, which are not always exact repeats. Identical values can stand only once.
Key:
[1] = tested on: CTCL cell line MJ; assay: PrestoBlue cell viability, MJ; type: cell-based, human; conditions: 72 hours, read-out: absolute IC50, cell viability
Method: Cutaneous T-cell lymphoma (CTCL) cell lines MJ and Hut78 were purchased from ATCC (CRL-8294, and TIB-161, respectively). Cells were grown in Iscove's Modified Dulbecco's Media supplemented with 2 mM L-glutamine, 10% fetal bovine serum, 100 U/mL of penicillin and 0.1 mg/mL of streptomycin.
Cells (1-2×10^4) were seeded in 96-well plates and treated with Formula C. Cell viability was determined 72 hours later using PrestoBlue reagent according to manufacturer's instruction (Life Technologies). The percentage of viability was expressed according to the fluorescence emitted by Formula C-treated cells compared to DMSO-treated control cells. The florescence emission values at 590 nm were measured with the plate-reader Spark 10M—multimode microplate reader (TECAN).

[2] = tested on: Head & Neck HNXF 536; assay: CFA, HNXF 536; type: cell-based, human; conditions: PDX/CFA
Method: (§1) CFA was performed by Charles River Laboratories (Freiburg, Germany) in 96-well plate format according to a modified two-layer soft agar assay. The origin of the tumor xenografts has been described (Fiebig et al. 1989, incorporated herein by reference). The list of tumors used in this study is detailed in Table 1.

[3] = tested on: Leukemia (AML) LEXFAM PL-21; assay: CFA, LEXFAM PL-21; type: cell-based, human; conditions: Cell line/CFA
Method: as §1

[4] = tested on: Head & Neck HNXF 908; assay: CFA, HNXF 908; type: cell-based, human; conditions: PDX/CFA
Method: as §1

[5] = tested on: Lung (NSCLC, adeno) LXFA 1012; assay: CFA, LXFA 1012; type: cell-based, human; conditions: PDX/CFA
Method: as §1

[6] = tested on: AK lesions; assay: Phase 2a in subjects with actinic keratosis, efficacy (lesion count); type: in vivo, human
Method: (§2) The Phase 2 clinical trial was a multiple-center randomized, double-blind, placebo-controlled, parallel-cohorts study to evaluate the efficacy, safety, tolerability, and pharmacokinetics of once-daily application of topical Formula C ointment (QD 200 mg) for 28 days in subjects with actinic keratosis. Subjects were followed for one or two months after they completed treatment (through day 56 or day 84). The primary and exploratory efficacy endpoints for the study were reduction in the number of lesions on days 56 and 84, respectively. Subjects were randomly assigned in a double-blind fashion to one of three parallel treatment cohorts (5%, or 10% Formula C, or placebo) at a ratio of 1:1:1. To qualify for the study, subjects aged 18 (inclusive) or older must have had 4-8 discrete Grade 1 or 2 AK lesions within a 25-centimeter squared area of the skin of their scalp or face. The study enrolled 93 subjects in the US and Israel.

[7] = tested on: Melanoma MEXF 535; assay: CFA, MEXF 535; type: cell-based, human; conditions: PDX/CFA
Method: as §1

[8] = Phase 2a in subjects with actinic keratosis, safety; type: in vivo, human
Method: as §2

[9] = tested on: Leukemia (AML) LEXFAM HL-60; assay: CFA, LEXFAM HL-60; type: cell-based, human; conditions: Cell line/CFA
Method: as §1

[10] = tested on: Leukemia (AML) LEXFAM KG-1; assay: CFA, LEXFAM KG-1; type: cell-based, human; conditions: Cell line/CFA
Method: as §1

[11] = tested on: Kidney RXF 423; assay: CFA, RXF 423; type: cell-based, human; conditions: PDX/CFA
Method: as §1

[12] = tested on: Cutanous T cell lymphoma Hut-78; assay: XTT cell viability assay, Hut-78; type: cell-based, human; conditions: Cell line/XTT
Method: (§3) For XTT assays, cells were plated in 96-well plates (5,000 cells per well) for 24 hours. Cells were then incubated with different concentrations of Formula C in triplicates for 72 hr in DMEM supplemented with 0.5% FCS and 5 mM Glucose. Cell viability was evaluated using 2,3-bis-(2-methoxy-4-nitro-5-sulfophenyl)-2H-tetrazolium-5-carboxanilide (XTT)-based colorimetric assay kit (Biological Industries Ltd., Kibbutz Beit-Haemek, Israel). The optical density was measured by an Infinite 200 ELISA reader at 450 nm and reference was measured at 630 nm (Tecan, Männedorf, Switzerland).

[13] = tested on: Lymphoma (Non-Hodgkin) LYXFNH U-937; assay: CFA, LYXFNH U-937; type: cell-based, human; conditions: Cell line/CFA
Method: as §1

[14] = tested on: Cutanous T cell lymphoma MJ; assay: XTT cell viability assay, MJ; type: cell-based, human; conditions: Cell line/XTT
Method: as §3

[15] = tested on: Lung (NSCLC, large) LXFL 1072; assay: CFA, LXFL 1072; type: cell-based, human; conditions: PDX/CFA
Method: as §1

[16] = tested on: Lymphoma (Non-Hodgkin) LYXF MY-LA; assay: CFA, LYXF MY-LA; type: cell-based, human; conditions: Cell line/CFA
Method: as §1

[17] = tested on: Skin SCC SKXF 1834; assay: CFA, SKXF 1834; type: cell-based, human; conditions: PDX/CFA
Method: as §1

[18] = tested on: Kidney RXF 1220; assay: CFA, RXF 1220; type: cell-based, human; conditions: PDX/CFA
Method: as §1

[19] = tested on: A431 Skin SCC cells; assay: XTT cell viability assay, A431; type: cell-based, human; conditions: Cell line/XTT, 72 hr
Method: A431 (human skin SCC), HT-297.T (human AK), and HaCaT transformed normal keratinocyte cell lines were from ATCC (Manassas, VA) and were maintained in DMEM supplemented with 10% FCS, 4 mM L-Gln, 1 mM sodium pyruvate, 100 U/mL penicillin, 1 μg/mL streptomycin. Human HK1 and HK2 plasmids were purchased from Addgene (Cambridge, MA) and were purified from E. Coli. VDAC1 was purified from sheep liver mitochondria as described (Arbel et al. 2012, incorporated herein by reference). Human skin tissue microarray (SK208 and SK 805) were purchased from US Biomax Inc. (Rockville, MD).
as §3

[20] = tested on: Head & Neck HNXF 2205; assay: CFA, HNXF 2205; type: cell-based, human; conditions: PDX/CFA
Method: as §1

CC/C=C\CC1C(=O)CCC1CC(=O)Oc1cccc2cccnc12 (stereo not drawn) [Formula C]
pIC50 [1]: 5.75 | pIC50 [2]: 5.84 | pIC50 [3]: 5.76 | pIC50 [4]: 5.41 | pIC50 [5]: 5.87 | mean reduction in total lesion count from baseline on Day 56 ([6]; ITT-face subgroup, 10% ointment, adjusted to age and gender, P=0.023 vs Placebo): 38.8%±36.4% | median reduction in total lesion count ([6]; PP-face subgroup, 10% ointment): 50.0% | mean reduction in total lesion count from baseline on Day 56 ([6]; full ITT population (face or scalp), 10% ointment QD 200 mg 28 days, adjusted by site, age, gender, treatment field location): 32.1%±34.1% | median reduction in total lesion count from baseline on Day 56 ([6]; full Per Protocol (PP) population, 10% ointment): 25.0% | pIC50 [7]: 6.27 | serious adverse events (deemed unrelated) ([8]; 5% group): 1 elective surgery | treatment-emergent AEs deemed related to the study drug ([8]; 5% group, listed as VDA-1102): 1 mild dyspepsia and 1 mild hypopigmentation | serious adverse events (deemed unrelated) ([8]; 10% group): 1 acute pneumonia | clinically significant changes at application sites (Local Skin Reactions), vital signs, physical examinations, clinical laboratory results, ECGs ([8]; any subject, any time point): No clinically significant changes | safety signals ([8]; subjects with AK, 5% or 10% ointment QD 28 days): No safety signals | pIC50 [9]: 5.81 | pIC50 [10]: 5.94 | pIC50 [11]: 5.77 | pIC50 [12]: 5.97 | pIC50 [13]: 5.89 | pIC50 [14]: 5.83 | pIC50 [15]: 5.80 | pIC50 [16]: 6.00 | pIC50 [17]: 6.13 | pIC50 [18]: 5.20 | pIC50 [19]: 7.85 | pIC50 [20]: 5.40
